Molecular target: T1, mPDE10A7 (Mus musculus, UniProt Q8CA95)
T1 sequence (Q8CA95 446-763 limits assumed): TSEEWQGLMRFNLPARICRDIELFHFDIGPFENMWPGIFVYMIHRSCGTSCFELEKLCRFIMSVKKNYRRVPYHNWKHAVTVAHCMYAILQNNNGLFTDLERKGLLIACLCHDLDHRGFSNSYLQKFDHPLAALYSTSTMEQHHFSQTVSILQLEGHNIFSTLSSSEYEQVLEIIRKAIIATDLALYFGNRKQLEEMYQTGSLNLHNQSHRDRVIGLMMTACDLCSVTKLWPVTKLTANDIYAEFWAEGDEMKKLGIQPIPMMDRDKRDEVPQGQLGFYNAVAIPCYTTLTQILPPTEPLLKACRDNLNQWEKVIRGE
Assay: mPDE10A7 enzyme inhibition (IMAP fluorescence polarization)
Format: biochemical
Settings: fluorescein labeled cAMP or cGMP substrate
Method: To analyze the enzyme activity, 5 μL of serial diluted mPDE10A7 containing lysate were incubated with equal volumes of diluted (100-fold) fluorescein labeled cAMP or cGMP for 30 minutes in MDC HE 96-well assay plates at room temperature. Both the enzyme and the substrates were diluted in the following assay buffer: Tris/HCl (pH 8.0) 50 mM, MgCl2 5 mM, 2-mercaptoethanol 4 mM, BSA 0.33 mg/mL. After incubation, the reaction was stopped by adding 20 μL of diluted (400-fold) binding reagents and was incubated for an hour at room temperature. The plates were counted in an Analyst GT (Molecular Devices) for fluorescence polarization. An IMAP Assay kit (Molecular Device) was used to assess enzyme properties of mmPDE10A7. Data were analyzed with SoftMax Pro.
To check the inhibition profile, 10 μL of serial diluted compounds were incubated with 30 μl of diluted PDE enzymes in a 96-well polystyrene assay plate for 30 minutes at room temperature. After incubation, 5 μL of the compound-enzyme mixture were aliquoted into a MDC HE black plate, mixed with 5 μL of 100-fold diluted fluorescein labeled substrates (cAMP or cGMP), and incubated for 30 minutes at room temperature. The reaction was stopped by adding 20 μL of diluted binding reagents and counted in an Analyst GT for fluorescence polarization. The data were analyzed with SoftMax Pro.

| SMILES | IC50 |
| --- | --- |
| COc1cc2nncc(-c3cccc(N4CCOCC4)c3)c2cc1OC [Cpd 1, 6,7-dimethoxy-4-(3-morpholin-4-ylphenyl)cinnoline] | 57.9 nM |
| CCS(=O)(=O)c1cccc(-c2cnnc3cc(OC)c(OC)cc23)c1 [Cpd 3, 4-[3-(Ethylsulfonyl)phenyl]-6,7-dimethoxycinnoline] | 29.8 nM |
| COc1cc2nncc(-c3cccc(-c4cnn(C)c4)c3)c2cc1OC [Cpd 5, 6,7-dimethoxy-4-[3-(1-methyl-1H-pyrazol-4-yl)phenyl]cinnoline hydroformate] | 79.8 nM |
| COc1cc2nncc(N3CCc4[nH]nc(C(=O)NC5CC5)c4C3)c2cc1OC [Cpd 7, N-cyclopropyl-5-(6,7-dimethoxycinnolin-4-yl)-4,5,6,7-tetrahydro-1H-pyrazolo[4,3-c]pyridine-3-carboxamide] | 19.3 nM |
| COc1cc2nncc(-c3cccc(C4=NC(C)(C)CO4)c3)c2cc1OC [Cpd 8, 4-[3-(4,4-Dimethyl-4,5-dihydro-1,3-oxazol-2-yl)phenyl]-6,7-dimethoxycinnoline] | 30.6 nM |
| COc1cccc(-n2cc(-c3cnnc4cc(OC)c(OC)cc34)cn2)c1 [Cpd 10, 6,7-Dimethoxy-4-[1-(3-methoxyphenyl)-1H-pyrazol-4-yl]cinnoline hydroformate] | 68 nM |
| CCOC(=O)c1n[nH]c2ccc(-c3cnnc4cc(OC)c(OC)cc34)cc12 [Cpd 12, Ethyl 5-(6,7-dimethoxycinnolin-4-yl)-1H-indazole-3-carboxylate] | 12.1 nM |
| COc1cc2nncc(-c3cccc(NC(C)=O)c3)c2cc1OC [Cpd 14, N-[3-(6,7-dimethoxycinnolin-4-yl)phenyl]acetamide hydroformate] | 43 nM |
| COc1cc2nncc(-c3cnn(Cc4ccc(-c5ccccc5)cc4)c3)c2cc1OC [Cpd 23, 4-[1-(Biphenyl-4-ylmethyl)-1H-pyrazol-4-yl]-6,7-dimethoxycinnoline] | 474 nM |
| COC(=O)c1ccc(Cn2cc(-c3cnnc4cc(OC)c(OC)cc34)cn2)cc1 [Cpd 24, Methyl 4-{[4-(6,7-dimethoxycinnolin-4-yl)-1H-pyrazol-1-yl]methyl}benzoate] | 48.7 nM |
| COc1cc2nncc(-c3cnn(Cc4cccc(C(F)(F)F)c4)c3)c2cc1OC [Cpd 26, 6,7-Dimethoxy-4-{1-[3-(trifluoromethyl)benzyl]-1H-pyrazol-4-yl}cinnoline] | 182 nM |
| COc1cc2nncc(-c3cnn(Cc4ccccc4C#N)c3)c2cc1OC [Cpd 28, 2-{[4-(6,7-Dimethoxycinnolin-4-yl)-1H-pyrazol-1-yl]methyl}benzonitrile] | 101 nM |
| COc1cc2nncc(-c3cnn(Cc4ccc(OC(F)(F)F)cc4)c3)c2cc1OC [Cpd 32, 6,7-dimethoxy-4-{1-[4-(trifluoromethoxy)benzyl]-1H-pyrazol-4-yl}cinnoline] | 459 nM |
| COc1cc2nncc(-c3cnc(N4CCN(C)CC4)nc3)c2cc1OC [Cpd 43, 6,7-dimethoxy-4-[2-(4-methylpiperazin-1-yl)pyrimidin-5-yl]cinnoline] | 19.9 nM |
| COc1cc2nncc(-c3ccc(NC(C)C)nc3)c2cc1OC [Cpd 59] | 8.23 nM |
| COc1cc2nncc(-c3ccc(NCC4CCN4C(=O)OC(C)(C)C)nc3)c2cc1OC (stereo not drawn) [Cpd 65] | 66.6 nM |
| COc1cc2nncc(-c3ccc(N4CCn5c(nnc5C(F)(F)F)C4)nc3)c2cc1OC [Cpd 72] | 68.6 nM |
| CNC1CCN(c2ccc(-c3cnnc4cc(OC)c(OC)cc34)cn2)CC1 [Cpd 79] | 362 nM |
| COc1cc2nncc(-c3ccc(Nc4ccccc4)nc3)c2cc1OC [Cpd 81] | 89.1 nM |
| COc1cc2nncc(-c3ccc(NCCc4ccccn4)nc3)c2cc1OC [Cpd 93] | 17.9 nM |
| COc1cc2nncc(-c3ccc(C(C)=O)c(F)c3)c2cc1OC [Cpd 100] | 254 nM |
| COc1cc2nncc(-c3ccc(N4CCC(O)(c5ccccc5)CC4)nc3)c2cc1OC [Cpd 108] | 21.4 nM |
| COc1cc2nncc(-c3cnc(-c4cnc(NC(C)C)c(F)c4)c(F)c3)c2cc1OC [Cpd 115] | 676 nM |
| COc1cc2nncc(-c3ccc(Nc4ccc(-c5cnco5)cc4)nc3)c2cc1OC [Cpd 118] | 38.6 nM |
| COc1cc2nncc(-c3ccc(NCc4cccc(OC(F)(F)F)c4)nc3)c2cc1OC [Cpd 122] | 186 nM |
| COc1cc2nncc(-c3ccc(NC(C)C)nc3C)c2cc1OC [Cpd 123] | 18.5 nM |
| COc1cc2nncc(-c3ccc(F)c(NC(C)=O)c3)c2cc1OC [Cpd 146] | 41.5 nM |

More lines, in order of falling IC50, values ahead:

| IC50 | SMILES |
| --- | --- |
| 614 nM | COc1cc2nncc(-c3ccc(NCCN)nc3)c2cc1OC [Cpd 63] |
| 259 nM | COc1cc2nncc(-c3ccc(Nc4nnc(C5CC5)s4)nc3)c2cc1OC [Cpd 119] |
| 247 nM | COc1cc2nncc(N3CCc4c(OCC5CC5)cccc4C3=O)c2cc1OC [Cpd 46] |
| 231 nM | COc1cc2nncc(-c3ccc(CN4CC(C(=O)O)C4)cc3)c2cc1OC [Cpd 101, 1-(4-(6,7-dimethoxycinnolin-4-yl)benzyl)azetidine-3-carboxylic acid] |
| 209 nM | COc1cc2nncc(-n3ccc4cc(N5CCOCC5)ccc43)c2cc1OC [Cpd 20, 6,7-dimethoxy-4-(5-morpholin-4-yl-1H-indol-1-yl)cinnoline hydroformate] |
| 179 nM | COc1cc2nncc(-c3ccc(Nc4ccc(N(C)C)cc4)nc3)c2cc1OC [Cpd 88] |
| 167 nM | COc1cc2nncc(N3CCc4cc(N5CCCCC5)ccc4C3=O)c2cc1OC [Cpd 4, 2-(6,7-dimethoxycinnolin-4-yl)-6-piperidin-1-yl-3,4-dihydroisoquinolin-1(2H)-one] |
| 152 nM | COc1cc2nncc(-c3ccc(Oc4ccccc4)nc3)c2cc1OC [Cpd 87] |
| 106 nM | COc1cc2nncc(-c3ccc(OCc4ccc5ccccc5n4)cc3)c2cc1OC [Cpd 68] |
| 87.9 nM | COc1cc2nncc(-c3ccc(Nc4cccc(C#N)c4)nc3)c2cc1OC [Cpd 95] |
| 62 nM | COc1cc2nncc(-c3ccnc(N4CCOCC4)c3F)c2cc1OC [Cpd 42] |
| 55.8 nM | COc1cc2nncc(-c3ccnc(N4CCN(C)C(=O)C4)c3)c2cc1OC [Cpd 54] |
| 48.4 nM | CCOC(=O)c1noc2ccc(-c3cnnc4cc(OC)c(OC)cc34)cc12 [Cpd 52] |
| 43.6 nM | COc1cc2nncc(-c3cnn(Cc4ccc(C)cc4)c3)c2cc1OC [Cpd 21, 6,7-Dimethoxy-4-[1-(4-methylbenzyl)-1H-pyrazol-4-yl]cinnoline] |
| 36.2 nM | COCCNc1ccc(-c2cnnc3cc(OC)c(OC)cc23)cn1 [Cpd 62] |
| 33.8 nM | COc1cc2nncc(-c3ccc(OCC4CC4)nc3)c2cc1OC [Cpd 89, 4-(6-(cyclopropylmethoxy)pyridin-3-yl)-6,7-dimethoxycinnoline] |
| 29.5 nM | COc1cc2nncc(-c3ccc(N4CCC(F)(F)CC4)nc3)c2cc1OC [Cpd 56] |
| 22.8 nM | COc1cc2nncc(-c3cccc(N(C)C)c3)c2cc1OC [Cpd 15, 3-(6,7-Dimethoxycinnolin-4-yl)-N,N-dimethylaniline hydroformate] |
| 11.1 nM | COc1cc2nncc(-c3ccc(N4CCOCC4)nc3)c2cc1OC [Cpd 33, 6,7-Dimethoxy-4-(6-morpholin-4-ylpyridin-3-yl)cinnoline] |
| 10.5 nM | COc1cc2nncc(-c3ccc(N4CCC(OC)C4)nc3)c2cc1OC (stereo not drawn) [Cpd 55] |
| 10.4 nM | COc1cc2nncc(-c3cnn(Cc4ccc(F)cc4)c3)c2cc1OC [Cpd 35, 4-[1-(4-fluorobenzyl)-1H-pyrazol-4-yl]-6,7-dimethoxycinnoline hydroformate] |

From patent US20070265256A1, “Phosphodiesterase 10 inhibitors” (priority 2006, published 2007)
